From US11318137B2, “Quinazoline compounds as modulators of Ras signaling” (VANDERBILT UNIVERSITY, priority 2017, dated 2022)

Experiments:
[1] = biological target: T1, SOS-mediated nucleotide exchange on Ras (Homo sapiens, UniProt Q07889); experiment: SOS-mediated nucleotide exchange on Ras (BODIPY-GDP fluorescence); type: biochemical; details: Ras loaded with BODIPY-GDP, GTP and SOS added; EC50 from derived exchange rates
T1 sequence (Q07889 1-1333): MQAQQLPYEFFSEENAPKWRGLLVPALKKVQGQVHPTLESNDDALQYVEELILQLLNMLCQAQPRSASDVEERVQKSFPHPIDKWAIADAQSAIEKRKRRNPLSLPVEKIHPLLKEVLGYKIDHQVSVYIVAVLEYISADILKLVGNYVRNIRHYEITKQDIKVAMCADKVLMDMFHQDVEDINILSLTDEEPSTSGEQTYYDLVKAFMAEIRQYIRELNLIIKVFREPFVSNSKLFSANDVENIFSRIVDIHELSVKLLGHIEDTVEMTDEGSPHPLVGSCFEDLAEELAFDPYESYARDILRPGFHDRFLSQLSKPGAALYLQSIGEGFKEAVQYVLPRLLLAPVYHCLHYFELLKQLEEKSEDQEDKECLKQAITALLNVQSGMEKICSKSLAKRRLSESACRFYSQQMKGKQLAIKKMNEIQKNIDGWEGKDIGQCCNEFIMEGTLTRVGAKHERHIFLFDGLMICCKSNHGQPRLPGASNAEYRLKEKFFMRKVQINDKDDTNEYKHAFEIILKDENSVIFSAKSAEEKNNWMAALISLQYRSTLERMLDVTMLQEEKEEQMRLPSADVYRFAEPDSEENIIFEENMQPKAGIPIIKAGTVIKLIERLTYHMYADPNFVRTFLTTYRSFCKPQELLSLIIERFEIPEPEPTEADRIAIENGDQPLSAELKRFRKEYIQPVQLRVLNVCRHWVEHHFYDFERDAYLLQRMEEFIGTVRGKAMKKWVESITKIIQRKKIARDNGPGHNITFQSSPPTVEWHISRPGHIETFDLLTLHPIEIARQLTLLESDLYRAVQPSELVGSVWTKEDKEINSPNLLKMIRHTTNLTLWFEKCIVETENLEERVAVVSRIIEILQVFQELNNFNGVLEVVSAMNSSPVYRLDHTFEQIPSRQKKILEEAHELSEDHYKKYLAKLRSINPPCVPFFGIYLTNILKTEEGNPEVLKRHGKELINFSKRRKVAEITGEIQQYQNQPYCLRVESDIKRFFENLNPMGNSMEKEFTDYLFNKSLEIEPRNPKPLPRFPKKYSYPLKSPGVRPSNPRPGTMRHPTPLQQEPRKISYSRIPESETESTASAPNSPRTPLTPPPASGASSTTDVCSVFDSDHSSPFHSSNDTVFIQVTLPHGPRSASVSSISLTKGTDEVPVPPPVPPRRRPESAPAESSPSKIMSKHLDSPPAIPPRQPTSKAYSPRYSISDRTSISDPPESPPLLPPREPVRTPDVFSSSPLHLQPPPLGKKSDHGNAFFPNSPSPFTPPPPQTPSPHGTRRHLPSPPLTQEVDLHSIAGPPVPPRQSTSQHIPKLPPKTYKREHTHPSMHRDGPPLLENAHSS
Outline: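 Compound, then GTP and SOS, were added to buffered Ras preloaded with BODIPY-GDP, and the fluorescence change from labeled GDP being exchanged for GTP was followed over time. Rates came from single-exponential fits, and EC50 from a four-parameter fit of mean rate against compound concentration.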

[2] = biological target: T2, Son of Sevenless (SOS) (Homo sapiens, UniProt Q07889); experiment: Binding to SOS, fluorescence polarization anisotropy (FPA) displacement of FITC-conjugated probe; details: binding affinity calculated from IC50 of FITC-probe displacement, read-out: Binding affinities (binding affinity to SOS)
T2 sequence (Q07889 564-1049 limits assumed): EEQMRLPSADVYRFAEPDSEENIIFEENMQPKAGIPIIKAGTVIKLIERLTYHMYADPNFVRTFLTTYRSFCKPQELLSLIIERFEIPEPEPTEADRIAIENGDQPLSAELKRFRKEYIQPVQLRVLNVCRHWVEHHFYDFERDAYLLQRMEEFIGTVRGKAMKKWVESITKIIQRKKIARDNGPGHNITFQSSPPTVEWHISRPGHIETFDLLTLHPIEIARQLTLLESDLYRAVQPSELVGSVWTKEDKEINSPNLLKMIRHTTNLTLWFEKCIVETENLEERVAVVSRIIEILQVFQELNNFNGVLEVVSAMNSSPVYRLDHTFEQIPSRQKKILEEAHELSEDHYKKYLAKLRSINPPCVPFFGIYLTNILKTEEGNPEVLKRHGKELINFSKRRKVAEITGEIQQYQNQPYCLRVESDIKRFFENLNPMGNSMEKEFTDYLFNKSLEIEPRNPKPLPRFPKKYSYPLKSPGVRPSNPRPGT
Outline: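 FITC-labelled probe incubated with SOS in buffer; displacement by test compound across a dose range read as fluorescence anisotropy change. IC50 from four-parameter variable-slope fit, binding affinity calculated from IC50.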

[3] = test system: H727 lung cancer cell lines, which contain a G12V K-Ras mutation; experiment: Inhibition of cancer cell proliferation (CellTiter-Glo, 3 days); type: cell-based; details: Homo sapiens, NCI-H727, 72 h, H727 cells, 3 days at 37° C., normalized to DMSO control, read-out: Cell proliferation activity (H727 cancer cell line proliferation IC50)
Protocol: C. Inhibition of Cancer Cell Proliferation
Compounds of the present invention were measured for their ability to kill H727 lung cancer cell lines, which contain a G12V K-Ras mutation. Cell proliferation experiments were conducted in 96-well plates. Cells were plated at 1000 cells/well, incubated overnight, followed by treatment with a dose range of compound for 3 days at 37° C. Cell proliferation was assessed using a CellTiter-Glo assay (Promega) according to the manufacturer's protocol. Data were normalized to DMSO control. IC50 values were determined using a four-parameter dose-response (variable slope) equation. These assays are performed in a manner analogous to the assay disclosed in: Burns, M. C.; Sun, Q.; Daniels, R. N.; Camper, D. V.; Kennedy, J. P.; Phan, J.; Olejniczak, E. O.; Lee, T.; Waterson, A. G.; Rossanese, O. W.; Fesik, S. W. “Approach for targeting Ras with small molecules that activate SOS-mediated nucleotide exchange” Proc. Natl. Acad. Sci. 2014; 11(9): 3401-3406. PMCID: PMC3948241.

SMILES	EC50 [1]	Ki [2]	IC50 [3]
CCC(CC)CNc1nc(Nc2ccc(F)c(Cl)c2)nc2c(N3CCNCC3)cccc12 [Example 102, N^2-(3-chloro-4-fluorophenyl)-N^4-(2-ethylbutyl)-8-(piperazin-1-yl)quinazoline-2,4-diamine]	5 to 30 µM	> 5 µM	1 to 5 µM
CC1CCC(CNc2nc(N[C@H](C)C3CC3)c3cccc(C4=CCNCC4)c3n2)CC1 (stereo partly drawn) [Example 104, (R)—N^4-(1-cyclopropylethyl)-N^2-((4-methylcyclohexyl)methyl)-8-(1,2,3,6-tetrahydropyridin-4-yl)quinazoline-2,4-diamine]	1 to 5 µM	1 to 5 µM	< 1 µM
